A word on the Ki: it is a dissociation constant, usually derived from enzyme kinetics or from competition with a known ligand. A higher Ki goes with weaker binding.

In this assay the target is T1, Human CXCR3 (N-delta 4) (Homo sapiens, UniProt P49682).
T1 construct: CD8 leader (N); Flag; expressed in transfected cells; membrane preparation
T1 sequence (P49682 5-368 limits assumed): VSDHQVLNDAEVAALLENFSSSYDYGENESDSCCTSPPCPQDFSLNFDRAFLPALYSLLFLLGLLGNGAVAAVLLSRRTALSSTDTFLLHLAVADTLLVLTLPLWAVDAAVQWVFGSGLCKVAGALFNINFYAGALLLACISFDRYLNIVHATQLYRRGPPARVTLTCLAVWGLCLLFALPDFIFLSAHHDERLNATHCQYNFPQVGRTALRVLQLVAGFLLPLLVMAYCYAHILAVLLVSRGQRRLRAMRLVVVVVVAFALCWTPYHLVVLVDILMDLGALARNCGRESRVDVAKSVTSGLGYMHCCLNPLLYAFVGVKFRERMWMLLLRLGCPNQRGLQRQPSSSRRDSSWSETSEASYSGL
In words: Human CXCR3 (N-delta 4) Scintillation Proximity Assay (SPA), [125I] IP-10 binding. The note with it: rating; 25 pM [125I] IP-10, Ba/F3-hCXCR3 (N-delta 4) membranes, 3 hr room temperature. The source says:
The inventive compounds can readily be evaluated to determine activity at The CXCR3 receptors by known methods, such as, for example, Development of Human CXCR3 (N-delta 4) Binding Assay.
Cloning and Expression of Human CXCR3 (N-delta 4):
The DNA encoding human CXCR3 was cloned by PCR using human genomic DNA (Promega, Madison, Wis.) as a template. The PCR primers were designed based on the published sequence of human orphan receptor GPR9 (1) with incorporated restriction sites, a Kozak consensus sequence, CD8 leader and Flag tag. The PCR product was subcloned into the mammalian expression vector pME18neo, a derivative of the SR-alpha expression vector (designated as pME18Sneo-hCXCR3 (N-delta 4).
IL-3-dependent mouse pro-B cells Ba/F3 were transfected by electroporation in 0.4 ml Dulbecco's PBS containing 4×10^6 cells with 20 μg of pME18Sneo-hCXCR3 (N-delta 4) plasmid DNA. Cells were pulsed at 400 Volts, 100 OHMs, 960 μFd. The transfected cells were under selection with 1 mg/ml G418 (Life Technologies, Gaithersburg, Md.). G418-resistant Ba/F3 clones were screened for CXCR3 expression by specific binding of [^125I] IP-10 (NEN Life Science Products, Boston, Mass.).
Preparation of Ba/F3-hCXCR3 (N-delta 4) Membranes
Ba/F3 cells expressing human CXCR3 (N-delta 4) were pelleted and resuspended in the lysis buffer containing 10 mM HEPES, pH 7.5 and Complete® protease inhibitors (1 tablet per 100 ml) (Boehringer Mannheim, Indianapolis, Ind.) at a cell density of 20×10^6 cells per ml. After 5 minutes incubation on ice, cells were transferred to 4639 cell disruption bomb (Parr Instrument, Moline, Ill.) and applied with 1,500 psi of nitrogen for 30 minutes on ice. Large cellular debris was removed by centrifugation at 1,000×g. Cell membrane in the supernatant was sedimented at 100,000×g. The membrane was resuspended in the lysis buffer supplemented with 10% sucrose and stored at −80° C. Total protein concentration of the membrane was determined by BCA method from Pierce (Rockford, Ill.).
Human CXCR3 (N-delta 4) Scintillation Proximity Assay (SPA)
For each assay point, 2 μg of membrane was preincubated for 1 hr with 300 μg wheat germ agglutinin (WGA) coated SPA beads (Amersham, Arlington Heights, Ill.) in the binding buffer (50 mM HEPES, 1 mM CaCl2, 5 mM MgCl2, 125 mM NaCl, 0.002% NaN3, 1.0% BSA) at room temperature. The beads were spun down, washed once, resuspended in the binding buffer and transferred to a 96-well Isoplate (Wallac, Gaithersburg, Md.). 25 pM of [^125I] IP-10 with tested compounds in a series of titration were added to start the reaction. After 3 hr reaction at room temperature, the amount of [^125I] IP-10 bound to the SPA beads was determined with a Wallac 1450 Microbeta counter.
The Ki values for the various example compounds of the present invention are given in the afore-mentioned Table 1. From these values, it would be apparent to the skilled artisan that the compounds of the invention have excellent utility CXCR3 antagonists.
(SPA uses beads or plates that emit light when radiolabelled molecules are held near them.)
Regarding `CCNC(=O)c1ccc(N2CCN(C3CCN(Cc4ccc(Cl)cc4)CC3)[C@@H](CC)C2)c(C)n1` [Compound 1], the Ki was below 0.025 µM. Turning to `CC[C@H]1CN(c2ccc(C(=O)NC3CC3)nc2C)CCN1C1CCN(Cc2ccc(OC(F)(F)F)cc2)CC1` [Compound 2], the Ki was below 0.025 µM.

Take `CC[C@H]1CN(c2ccc(C(N)=O)nc2C)CCN1C1CCN(Cc2ccc(Cl)cc2)CC1` [Compound 3]: the Ki was below 0.025 µM.

On to `CC[C@H]1CN(c2ccc(C(N)=O)nc2C)CCN1C1CCN(Cc2ccc(OC(F)(F)F)cc2)CC1` [Compound 4], for which the Ki was below 0.025 µM.

`CC[C@H]1CN(c2ccc(C(=O)NC3CC3)nc2C)CCN1C1CCN(C(=O)c2ccc(Cl)c(F)c2)CC1` [Compound 5] showed an inhibition constant (Ki) below 0.025 µM. Compound `CC[C@H]1CN(c2ccc(C(=O)NC3CC3)nc2C)CCN1C1CCN(C(=O)c2ccc(Cl)cc2)CC1` [Compound 6] gave a Ki below 0.025 µM. Compound `CC[C@H]1CN(c2ccc(C(=O)NC3CC3)nc2Cl)[C@H](C)CN1C1CCN(C(=O)c2ccc(Cl)cc2)CC1` [Compound 7] registered a Ki below 0.025 µM. In turn, `CC[C@H]1CN(c2ccc(C(=O)NC3CC3)nc2C)CCN1C1CCN(C(=O)c2ccc(F)c(F)c2)CC1` [Compound 8] returned an inhibitory constant (Ki) below 0.025 µM. With `CC[C@H]1CN(c2ccc(C(=O)NC3CC3)nc2C)[C@H](C)CN1C1CCN(C(=O)c2ccc(Cl)c(F)c2)CC1` [Compound 9] the figure was below 0.025 µM; with `CC[C@H]1CN(c2ccc(C(N)=O)nc2C)CCN1C1CCN(C(=O)c2ccc(Cl)cc2)CC1` [Compound 10], below 0.025 µM. The compound `CC[C@H]1CN(c2ccc(C(=O)NC3CC3)nc2C(F)(F)F)[C@H](C)CN1C1CCN(C(=O)c2ccc(Cl)cc2)CC1` [Compound 11] yielded an inhibitory constant (Ki) of 0.025 to 0.1 µM.

Compound `CC[C@H]1CN(c2cnc(C#N)cc2C)CCN1C1CCN(C(=O)c2ccc(Cl)cc2)CC1` [Compound 12] registered a Ki above 0.1 µM. In turn, `CC[C@H]1CN(c2ccc(CO)nc2C)CCN1C1CCN(C(=O)c2ccc(Cl)cc2)CC1` [Compound 13] displayed an inhibition constant (Ki) above 0.1 µM. In turn, `CC[C@H]1CN(c2cnc(C(N)=O)cc2C)CCN1C1CCN(C(=O)c2ccc(Cl)cc2)CC1` [Compound 14] returned a Ki above 0.1 µM.
